The Kinase Knowledgebase extract (Sharma et al. 2016)

Biological target: ROCK2 (UniProt O75116)
Assay: Inhibition of ROCK2 Kinase Activity

ROCK2, sequence (O75116 whole entry, looked up): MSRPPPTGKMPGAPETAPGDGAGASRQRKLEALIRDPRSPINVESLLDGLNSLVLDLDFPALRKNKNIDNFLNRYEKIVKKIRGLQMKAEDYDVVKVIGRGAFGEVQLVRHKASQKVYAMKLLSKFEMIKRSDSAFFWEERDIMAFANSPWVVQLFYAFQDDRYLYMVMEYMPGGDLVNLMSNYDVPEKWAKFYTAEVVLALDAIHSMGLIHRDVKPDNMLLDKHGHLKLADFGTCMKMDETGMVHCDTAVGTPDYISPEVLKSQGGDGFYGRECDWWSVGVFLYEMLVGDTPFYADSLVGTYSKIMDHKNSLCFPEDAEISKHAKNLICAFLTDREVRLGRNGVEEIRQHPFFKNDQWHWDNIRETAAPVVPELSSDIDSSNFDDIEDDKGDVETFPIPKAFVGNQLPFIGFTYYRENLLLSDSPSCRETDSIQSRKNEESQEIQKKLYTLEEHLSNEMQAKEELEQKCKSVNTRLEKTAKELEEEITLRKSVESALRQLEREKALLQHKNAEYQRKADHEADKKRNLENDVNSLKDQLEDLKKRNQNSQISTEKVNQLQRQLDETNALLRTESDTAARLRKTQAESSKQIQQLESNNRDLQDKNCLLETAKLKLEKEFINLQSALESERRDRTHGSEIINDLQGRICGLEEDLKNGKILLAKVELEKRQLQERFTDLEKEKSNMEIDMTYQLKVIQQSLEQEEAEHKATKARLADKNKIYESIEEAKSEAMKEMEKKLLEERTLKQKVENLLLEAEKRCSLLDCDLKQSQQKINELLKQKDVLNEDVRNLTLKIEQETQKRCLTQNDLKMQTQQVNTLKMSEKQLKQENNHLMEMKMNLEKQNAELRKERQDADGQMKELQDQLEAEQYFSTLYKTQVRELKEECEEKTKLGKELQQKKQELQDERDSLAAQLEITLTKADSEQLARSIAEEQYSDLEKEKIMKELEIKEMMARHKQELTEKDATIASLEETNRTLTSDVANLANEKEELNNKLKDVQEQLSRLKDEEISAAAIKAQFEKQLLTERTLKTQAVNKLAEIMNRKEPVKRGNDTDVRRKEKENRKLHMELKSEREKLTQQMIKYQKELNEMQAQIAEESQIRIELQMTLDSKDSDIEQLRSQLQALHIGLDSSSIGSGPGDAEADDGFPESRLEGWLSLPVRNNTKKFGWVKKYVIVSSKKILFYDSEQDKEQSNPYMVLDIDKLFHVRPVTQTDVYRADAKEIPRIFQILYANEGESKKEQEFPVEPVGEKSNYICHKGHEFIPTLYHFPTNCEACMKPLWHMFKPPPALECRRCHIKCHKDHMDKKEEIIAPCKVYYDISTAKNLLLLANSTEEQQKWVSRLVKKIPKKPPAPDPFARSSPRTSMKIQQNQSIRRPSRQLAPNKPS

Row | Compound | Ki [µM]
1 | CC(C)(N)c1ccc(-c2ccc3[nH]nc(C=NO)c3c2)cc1 | 0.0075
2 | CC(C)(N)c1ccc(-c2ccc3[nH]ncc3c2OC(F)F)nc1 | 0.0069
3 | CC(C)(N)c1ccc(-c2ccc3[nH]ncc3c2O)cc1 | 0.029
4 | CC(C)(N)c1ccc(-c2ccc3[nH]ncc3c2-c2ccccn2)cc1 | 0.241
5 | CN(C)c1c(-c2ccc(CN)cc2)ccc2[nH]ncc12 | 0.029
6 | Nc1c(-c2ccc(C3(N)CCCC3)cc2)ccc2[nH]ncc12 | 0.026
7 | CC(C)(N)c1ccc(-c2ccc3[nH]ncc3c2N)cc1 | 0.044
8 | CC(C)(N)c1ccc(-c2ccc3[nH]ncc3c2[N+](=O)[O-])nc1 | 0.199
9 | C=Cc1c(-c2ccc(C(C)(C)N)cn2)ccc2[nH]ncc12 | 0.017
10 | CC(C)(N)c1ccc(-c2ccc3[nH]ncc3c2OCCF)cc1 | 0.026
11 | CC(C)(N)c1cnc(-c2ccc3[nH]ncc3c2)c(Cl)c1 | 0.086
12 | CCN(CC)c1c(-c2ccc(C(C)(C)N)cc2)ccc2[nH]ncc12 | 0.614
13 | CC(C)Oc1c(-c2ccc(C(C)(C)N)cc2)ccc2[nH]ncc12 | 0.033
14 | CCC(N)(CC)c1ccc(-c2ccc3[nH]ncc3c2N(C)C)cc1 | 0.023
15 | COc1c(-c2ccc(C(C)(C)N)cn2)ccc2[nH]ncc12 | 0.027
16 | CCOc1c(-c2ccc(C(C)(C)N)cn2)ccc2[nH]ncc12 | 0.045
17 | CC(C)(N)c1ccc(-c2ccc3[nH]ncc3c2C2CC2)nc1 | 0.0027
18 | CC(C)(N)c1ccc(-c2ccc3[nH]ncc3c2-c2ccncc2)cc1 | 0.045
19 | CC(C)(N)c1ccc(-c2ccc3[nH]nc(C#N)c3c2)cc1 | 0.103
20 | CC(C)(N)c1ccc(-c2ccc3[nH]ncc3c2OC(F)F)cc1 | 0.0036
21 | CCOc1c(-c2ccc(C(N)(CC)CC)cn2)ccc2[nH]ncc12 | 0.035
22 | CC(C)(N)c1ccc(-c2ccc3[nH]ncc3c2CCO)cc1 | 0.047
23 | CC(C)(N)c1ccc(-c2ccc3[nH]ncc3c2N2CCCC2)cc1 | 0.014

Row | Compound | Ki [µM]
24 | C=CCOc1c(-c2ccc(C(C)(C)N)cc2)ccc2[nH]ncc12 | 0.023
25 | CC(C)(N)c1ccc(-c2ccc3[nH]ncc3c2N2CCCCC2)cc1 | 0.014
26 | CC(C)(N)c1ccc(-c2ccc3[nH]ncc3c2)nc1 | 0.02
27 | CC(C)(N)c1ccc(-c2ccc3[nH]ncc3c2-c2cn[nH]c2)nc1 | 0.056
28 | NCc1ccc(-c2ccc3[nH]ncc3c2[N+](=O)[O-])cc1 | 0.055
29 | CC(C)(N)c1ccc(-c2ccc3[nH]ncc3c2NCc2ccccc2)cc1 | 0.26
30 | CC(O)c1c(-c2ccc(C(C)(C)N)cc2)ccc2[nH]ncc12 (stereo not drawn) | 0.294
31 | CCC(N)(CC)c1ccc(-c2ccc3[nH]ncc3c2N)cc1 | 0.038
32 | COc1c(-c2ccc(C(C)(C)N)cc2)ccc2[nH]ncc12 | 0.013
33 | CC(C)(N)c1ccc(-c2ccc3[nH]ncc3c2OCC2CC2)nc1 | 0.146
34 | CC(C)(N)c1ccc(-c2ccc3[nH]ncc3c2C#N)cc1 | 0.035
35 | CCCOc1c(-c2ccc(C(C)(C)N)cc2)ccc2[nH]ncc12 | 0.014
36 | CC(C)(N)c1ccc(-c2ccc3[nH]ncc3c2OCC(F)(F)F)cc1 | 0.031
37 | CCc1c(-c2ccc(C(C)(C)N)cn2)ccc2[nH]ncc12 | 0.015
38 | CC(C)(N)c1ccc(-c2ccc3[nH]ncc3c2CO)cc1 | 0.139
39 | CC(C)(N)c1ccc(-c2ccc3[nH]ncc3c2-n2cccc2)cc1 | 0.012
40 | CC(C)(N)c1ccc(-c2ccc3[nH]nc(CO)c3c2)cc1 | 0.142
41 | CC(C)(N)c1ccc(-c2ccc3[nH]ncc3c2CCO)nc1 | 0.234
42 | CC(C)(N)c1ccc(-c2ccc3[nH]ncc3c2O)nc1 | 0.055
43 | CC(C)(N)c1ccc(-c2ccc3[nH]nc(N)c3c2)cc1 | 0.144
44 | C=C(C)c1n[nH]c2ccc(-c3ccc(C(C)(C)N)cc3)cc12 | 0.056
45 | COc1c(-c2ccc(C3(N)CCCC3)cn2)ccc2[nH]ncc12 | 0.027
46 | CCCOc1c(-c2ccc(C(C)(C)N)cn2)ccc2[nH]ncc12 | 0.039

Row | Compound | Ki [µM]
47 | CC(C)(N)c1ccc(-c2ccc3[nH]ncc3c2-c2cc[nH]n2)cc1 | 0.011
48 | CNc1c(-c2ccc(C(C)(C)N)cc2)ccc2[nH]ncc12 | 0.015
49 | CC(C)(N)c1ccc(-c2ccc3[nH]ncc3c2-c2ccno2)cc1 | 0.0064
50 | CC(C)(N)c1ccc(-c2ccc3[nH]ncc3c2[N+](=O)[O-])cc1 | 0.028
51 | CN(C)c1c(-c2ccc(C(C)(C)N)cc2)ccc2[nH]ncc12 | 0.016
52 | CCC(N)(CC)c1ccc(-c2ccc3[nH]ncc3c2OC2CC2)nc1 | 0.034
53 | CCCCOc1c(-c2ccc(C(C)(C)N)cc2)ccc2[nH]ncc12 | 0.013
54 | CC(C)(N)c1ccc(-c2ccc3[nH]ncc3c2-c2cn[nH]c2)cc1 | 0.0044
55 | CC(N)c1ccc(-c2ccc3[nH]ncc3c2N(C)C)cc1 (stereo not drawn) | 0.027
56 | CN(C)c1c(-c2ccc(C3(N)CCCC3)cc2)ccc2[nH]ncc12 | 0.014
57 | CC(C)(N)c1ccc(-c2ccc3[nH]nc(C(N)=O)c3c2)cc1 | 0.134
58 | COC(=O)c1n[nH]c2ccc(-c3ccc(C(C)(C)N)cc3)cc12 | 0.097
59 | CCOc1c(-c2ccc(C(C)(C)N)cc2)ccc2[nH]ncc12 | 0.017
60 | CC(C)Oc1c(-c2ccc(C(C)(C)N)cn2)ccc2[nH]ncc12 | 0.084
61 | CCC(N)(CC)c1ccc(-c2ccc3[nH]ncc3c2OC(F)F)cc1 | 0.013
62 | CC(C)(N)c1ccc(-c2ccc3[nH]ncc3c2OC2CC2)nc1 | 0.028
63 | CC(C)(N)c1ccc(-c2ccc3[nH]ncc3c2)cc1 | 0.019
64 | CCC(N)(CC)c1ccc(-c2ccc3[nH]ncc3c2OC)nc1 | 0.038
65 | CC(C)(N)c1ccc(-c2ccc3[nH]ncc3c2-c2cnco2)cc1 | 0.0026
66 | CC(C)(N)c1ccc(-c2ccc3[nH]ncc3c2N2CCOCC2)cc1 | 0.211
67 | NCc1ccc(-c2ccc3[nH]ncc3c2N)cc1 | 0.061
68 | CC(C)(N)c1ccc(-c2ccc3[nH]ncc3c2-c2cccnc2)cc1 | 0.126
